# Test results as given in PMC3025922 (BMC Biology, 2010).
# Like-named read-outs stand apart in the source and are kept apart here.
# Assays:
# [1] = test system: nuclear p27 in LNCaP-S14 cells; type: cell-based, human
# [2] = MTT cytotoxicity assay, IMR90; type: cell-based; conditions: human, IMR90, 0.01 - 40 μM, 72 h
# Description: (§1) LNCaP-S14 (10,000 cells), PC3, DU145 or IMR90 cells (5000 cells) were seeded in 96-well plates and treated with increasing concentrations of the respective SMIPs for 72 h. Cell viability was assessed using the MTT cell proliferation assay (ATCC®, Middlesex, UK) according to the manufacturer's protocol. IC50 was calculated using the BioDataFit 1.02 software http://www.changbioscience.com/stat/ec50.html.
# [3] = test system: LNCaP-S14 cells; experiment: MTT cytotoxicity assay, LNCaP-S14; conditions: Homo sapiens, 72 h, read-out: IC50 (MTT cytotoxicity)
# Description: as §1
# [4] = primary screening, nuclear p27 in LNCaP-S14 cells
# [5] = primary screening, S = strong, M = medium, W = weak by Z score
Compound,"Z score (aver) [1, 4]","Clasf [1, 5]",also measured
CCCCOc1ccc(C(=O)CCN2CCCCC2)cc1.Cl [1568F10],2.33,W (weak (Z score 2-3),–
Clc1ccccc1C(c1ccccc1)(c1ccccc1)n1ccnc1 [1568F16],–,–,Clasf [1]: W (key: S: strong (Z score > 5); M: medium (Z score 3-5); W: weak (Z score 2-3); Z score (aver) [1]: 2.26
CN(C)CCCN1c2ccccc2CCc2ccc(Cl)cc21.Cl [1568F20],2.49,W (weak (Z score 2-3),–
O=C(Nc1ccc([N+](=O)[O-])cc1Cl)c1cc(Cl)ccc1O [1568G21],3.77,M (medium (Z score 3-5)),–
CCC1(O)C(=O)OCc2c1cc1n(c2=O)Cc2cc3ccccc3nc2-1 (centres unmarked) [1568H21],4.82,M (medium (Z score 3-5)),–
OCCN1CCN(CCCN2c3ccccc3Sc3ccc(Cl)cc32)CC1 [1568I12],3.13,M (medium (Z score 3-5)),–
Cl.OC(c1cc(C(F)(F)F)nc2c(C(F)(F)F)cccc12)C1CCCCN1 (centres unmarked) [1568I14],8.87,S (strong (Z score > 5)),–
CN1CCCN(C(c2ccccc2)c2ccc(Cl)cc2)CC1.Cl (centres unmarked) [1568J08],2.49,W (weak (Z score 2-3),–
C1CCC(C(CC2CCCCN2)C2CCCCC2)CC1.O=C(O)C=CC(=O)O (centres unmarked) [1568J14],7.22,S (strong (Z score > 5)),–
O=C(CCCN1CCC2(CC1)C(=O)NCN2c1ccccc1)c1ccc(F)cc1 [1568J18],4.37,M (medium (Z score 3-5)),–
COC(=O)Nc1nc2cc(Sc3ccccc3)ccc2[nH]1 [1568J21],3.73,M (medium (Z score 3-5)),–
COc1ccc(CCN2CCC(Nc3nc4ccccc4n3Cc3ccc(F)cc3)CC2)cc1 [1568K14],–,–,Clasf [1]: S (key: S: strong (Z score > 5); M: medium (Z score 3-5); W: weak (Z score 2-3); Z score (aver) [1]: 8.76
CC#CC1(O)CCC2C3CCC4=CC(=O)CCC4=C3C(c3ccc(N(C)C)cc3)CC21C (centres unmarked) [1568L20],3.22,M (medium (Z score 3-5)),–
N=C(NCCCCCCNC(=N)NC(=N)Nc1ccc(Cl)cc1)NC(=N)Nc1ccc(Cl)cc1 [1568M08],6.26,S (strong (Z score > 5)),–
CCC(=C(c1ccccc1)c1ccc(OCCN(C)C)cc1)c1ccccc1.O=C(O)CC(O)(CC(=O)O)C(=O)O [1568M14],2.56,W (weak (Z score 2-3),–
Clc1ccc(COC(Cn2ccnc2)c2ccc(Cl)cc2Cl)c(Cl)c1 (centres unmarked) [1568M15],–,–,Clasf [1]: W (key: S: strong (Z score > 5); M: medium (Z score 3-5); W: weak (Z score 2-3); Z score (aver) [1]: 2.54
Clc1ccc(COC(Cn2ccnc2)c2ccc(Cl)cc2Cl)cc1.O=[N+]([O-])O (centres unmarked) [1568N10],2.46,W (weak (Z score 2-3),–
O=c1[nH]c2ccccc2n1C1CCN(CCCC(c2ccc(F)cc2)c2ccc(F)cc2)CC1 [1568N18],2.26,W (weak (Z score 2-3),–
CSc1ccc2c(c1)N(CCC1CCCCN1C)c1ccccc1S2.Cl (centres unmarked) [1568O17],–,–,Clasf [1]: W (key: S: strong (Z score > 5); M: medium (Z score 3-5); W: weak (Z score 2-3); Z score (aver) [1]: 2.51
CCN(CC)CCCC(C)Nc1c2ccc(Cl)cc2nc2ccc(OC)cc12 (centres unmarked) [1568P18],6.13,S (strong (Z score > 5)),–
CCCCCCC[N+](CC)(CC)CCCCc1ccc(Cl)cc1.Cc1ccc(S(=O)(=O)[O-])cc1 [1568P20],9.16,S (strong (Z score > 5)),–
Cl.OCCN1CCN(CCCN2c3ccccc3Sc3ccc(C(F)(F)F)cc32)CC1 [1568P22],2.76,W (weak (Z score 2-3),–
CN(C)CCC=C1c2ccccc2Sc2ccc(Cl)cc21.Cl [1569E17],3.86,M (medium (Z score 3-5)),–
COc1ccc(Cc2nccc3cc(OC)c(OC)cc23)cc1OC.Cl [1569F08],2.60,W (weak (Z score 2-3),–
C=C(NC(=O)C(=C)NC(=O)c1csc(C2=NC3c4csc(n4)C4NC(=O)c5csc(n5)C(C(C)(O)C(C)O)NC(=O)C5CSC(=N5)C(=CC)NC(=O)C(C(C)O)NC(=O)c5csc(n5)C3(CC2)NC(=O)C(C)NC(=O)C(=C)NC(=O)C(C)NC(=O)C(C(C)CC)NC2C=Cc3c(C(C)O)cc(nc3C2O)C(=O)OC4C)n1)C(N)=O (centres unmarked) [1569J05],5.60,S (strong (Z score > 5)),–
CSc1ccc2c(c1)C(N1CCN(C)CC1)Cc1ccccc1S2.O=C(O)C=CC(=O)O (centres unmarked) [1569K11],4.55,M (medium (Z score 3-5)),–
C=C1c2c(Cl)ccc(O)c2C(=O)C2=C(O)C3(O)C(=O)C(C(N)=O)=C(O)C(N(C)C)C3C(O)C12.O=C(O)c1cc(S(=O)(=O)O)ccc1O (centres unmarked) [1569K14],2.51,W (weak (Z score 2-3),–

Compound,"Z score (aver) [1, 4]","Clasf [1, 5]",also measured
CC1=CC(=O)c2ccccc2C1=O [1569K20],6.94,S (strong (Z score > 5)),–
Cc1c2ccncc2c(C)c2c1[nH]c1ccccc12 [1569L10],2.59,W (weak (Z score 2-3),–
Cl.Fc1ccc(C(OCCN2CCN(CCCc3ccccc3)CC2)c2ccc(F)cc2)cc1 [1569M13],5.81,S (strong (Z score > 5)),–
Cc1cc(N)c2ccccc2[n+]1CCCCCCCCCC[n+]1c(C)cc(N)c2ccccc21.Cl [1569M17],9.20,S (strong (Z score > 5)),–
C=C1C(=O)OC2C1CCC(C)=CCCC1(C)OC21 (centres unmarked) [1569N21],8.12,S (strong (Z score > 5)),–
COc1cc(C2c3cc4c(cc3C(OC3OC5COC(C)OC5C(O)C3O)C3COC(=O)C23)OCO4)cc(OC)c1O (centres unmarked) [1569O13],6.74,S (strong (Z score > 5)),–
COc1ccc(CC(N)C(=O)NC2C(CO)OC(n3cnc4c(N(C)C)ncnc43)C2O)cc1.Cl (centres unmarked) [1569O22],7.86,S (strong (Z score > 5)),–
CC1OC(OC2CCC3(C=O)C4CCC5(C)C(C6=CC(=O)OC6)CCC5(O)C4CCC3(O)C2)CC(O)C1O (centres unmarked) [1570A13],2.74,W (weak (Z score 2-3),–
CC12CCC(O)CC1CCC1C2CC(O)C2(C)C(C3=CC(=O)OC3)CCC12O (centres unmarked) [1570B08],2.80,W (weak (Z score 2-3),–
CN(C)CCN(Cc1ccc(Cl)cc1)c1ccccn1.Cl [1570B15],8.42,S (strong (Z score > 5)),–
CCC1(C2OC(C3OC(O)(CO)C(C)CC3C)CC2C)CCC(C2(C)CCC3(CC(O)C(C)C(C(C)C(OC)C(C)C(=O)[O-])O3)O2)O1.[Na+] (centres unmarked) [1570E18],9.26,S (strong (Z score > 5)),–
CCC(C(=O)C(C)C(O)C(C)CCc1ccc(C)c(O)c1C(=O)[O-])C1OC(CC)(C2CCC(O)(CC)C(C)O2)CC1C.[Na+] (centres unmarked) [1570F17],8.04,S (strong (Z score > 5)),–
Cc1cc2c(C(C)C)c(O)c(O)c(C=O)c2c(O)c1-c1c(C)cc2c(C(C)C)c(O)c(O)c(C=O)c2c1O [1570G15],3.54,M (medium (Z score 3-5)),–
NCC1OC(OC2C(N)CC(N)C(O)C2OC2OC(CO)C(O)C2O)C(N)C(O)C1O.O=S(=O)(O)O (centres unmarked) [1570G18],6.58,S (strong (Z score > 5)),–
O=C1C=C2C=CC3CC2(O1)C1CCCCN31 (centres unmarked) [1570J03],3.84,M (medium (Z score 3-5)),–
CCCCCCCCCCCCCCCC[N+](C)(C)CCN(Cc1ccc(OC)cc1)c1ncccn1 [1570J12],8.18,S (strong (Z score > 5)),–
CCCC(C(=O)OCCN(CC)CC)(c1ccccc1)c1ccccc1.Cl [1570K18],3.31,M (medium (Z score 3-5)),–
Nc1ncn(C2OC(CO)C(O)C2O)c(=O)n1 (centres unmarked) [1570N13],7.46,S (strong (Z score > 5)),–
O=c1cc(-c2ccc(O)c(O)c2)oc2cc(O)cc(O)c12 [1570N21],3.48,M (medium (Z score 3-5)),–
CCCCc1ccc2nc(NC(=O)C3=NN(C)C(=O)CC3)sc2c1 [1715B12],2.67,W (weak (Z score 2-3),–
COc1cc(C#N)ccc1OC(=O)Cc1coc2ccc3ccccc3c12 [1715D21],2.52,W (weak (Z score 2-3),–
"C/C=C(/C)C(=O)O[C@H]1C(C)=C2[C@H]([C@@H]1OC(=O)CCCCCCC)[C@@](C)(OC(C)=O)C[C@H](OC(=O)CCC)[C@@]1(O)[C@H]2OC(=O)[C@@]1(C)O [Thapsigargin, reference compound]",–,–,"hit in primary screen (increased percentage of p27 positive cells) ([1]; LNCaP-S14, ~5 to 35 μM, 18 h): identified; IC50 [2]: 0.031 µM; IC50 [3]: 0.0078 µM"
"COC[C@H]1OC(=O)c2coc3c2[C@@]1(C)C1=C(C3=O)[C@@H]2CCC(=O)[C@@]2(C)C[C@H]1OC(C)=O [Wortmannin, reference compound]",–,–,"hit in primary screen (increased percentage of p27 positive cells) ([1]; LNCaP-S14, ~5 to 35 μM, 18 h): scored positive"
"CC[C@@]1(O)C(=O)OCc2c1cc1n(c2=O)Cc2cc3ccccc3nc2-1 [camptothecin, reference compound]",–,–,"hit in primary screen (increased percentage of p27 positive cells) ([1]; LNCaP-S14, ~5 to 35 μM, 18 h): identified"
"COc1cc([C@@H]2c3cc4c(cc3[C@@H](O[C@@H]3O[C@@H]5CO[C@@H](C)O[C@H]5[C@H](O)[C@H]3O)[C@H]3COC(=O)[C@H]23)OCO4)cc(OC)c1O [etoposide, reference compound]",–,–,"hit in primary screen (increased percentage of p27 positive cells) ([1]; LNCaP-S14, ~5 to 35 μM, 18 h): identified"
"CO[C@@]12[C@H](COC(N)=O)C3=C(C(=O)C(C)=C(N)C3=O)N1C[C@@H]1N[C@@H]12 [mitomycin C, reference compound]",–,–,hit in primary screen (increased percentage of p27 positive cells) [1]: identified
"CC[C@H](CO)Nc1nc(NCc2ccccc2)c2ncn(C(C)C)c2n1 [roscovitine, reference compound]",–,–,percentage of p27 positive cells [1]: up to 50%
